Each compound was assayed against T1, NDM-1 (Klebsiella pneumoniae, UniProt C7C422) (assay: fluorescence enzyme assay, fluorocillin hydrolysis).
T1 construct: gene blaNDM-1; recombinant, expressed in E. coli
T1 sequence (C7C422 29-270 limits assumed): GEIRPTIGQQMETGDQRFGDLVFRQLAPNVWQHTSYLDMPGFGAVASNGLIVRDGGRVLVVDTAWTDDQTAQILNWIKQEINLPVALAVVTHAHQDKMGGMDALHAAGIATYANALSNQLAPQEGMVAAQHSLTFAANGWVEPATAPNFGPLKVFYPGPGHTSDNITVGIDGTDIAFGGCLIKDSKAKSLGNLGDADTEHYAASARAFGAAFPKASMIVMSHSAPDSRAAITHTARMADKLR
Format: biochemical
Source text: fluorescence enzyme assay, fluorocillin hydrolysis on NDM-1
Compound `O=C(O)[C@H]1CCCCN1C(=O)C(CS)Cc1cccc(O)c1O` (stereo partly drawn) [compound 2, (2R)-1-(2-(2,3-dihydroxybenzyl)-3-mercaptopropanoyl)piperidine-2-carboxylic acid] has an IC50 of 4300 ± 440 nM. With `C[C@H](CS)C(=O)N1CCN(C(=O)CCc2ccc(O)c(O)c2)C[C@@H]1C(=O)O` [compound 3, (R)-4-(3-(3,4-dihydroxyphenyl)propanoyl)-1-((S)-3-mercapto-2-methylpropanoyl)piperazine-2-carboxylic acid] the IC50 was 130 ± 17 nM. With `COc1cccc(CC(CS)C(=O)N2CCCC[C@@H]2C(=O)O)c1OC` (stereo partly drawn) [compound 12, (2R)-1-(2-(2,3-dimethoxybenzyl)-3-mercaptopropanoyl)piperidine-2-carboxylic acid] the IC50 was 1900 ± 270 nM. `COc1ccc(CCC(=O)N2CCN(C(=O)[C@H](C)CS)[C@@H](C(=O)O)C2)cc1OC` [compound 18, (R)-4-(3-(3,4-dimethoxyphenyl)propanoyl)-1-((S)-3-mercapto-2-methylpropanoyl)piperazine-2-carboxylic acid] gave an IC50 of 220 ± 16 nM.

From publication PMC9962638, “Integrating Siderophore Substructures in Thiol-Based Metallo-β-Lactamase Inhibitors” (Molecules, 2023)
